According to US20230203043A1, “NOVEL IMIDAZOPYRAZINE DERIVATIVES” (Hoffmann-La Roche Inc., priority 2020, published 2023):
Counter-ions that a name gives are not always drawn.

Tested on: Acinetobacter baumannii ATCC17961
Assay: Antimicrobial susceptibility testing: 90% growth inhibitory concentration (IC90) determination in Iso-Sensitest broth, OD600 growth
Format: cell-based
Conditions: Acinetobacter baumannii, ATCC17961, 16 h, read-out: A. baumannii ATCC 17961 IC90 (uM), strain ATCC 17961, OD600 growth over 16 h
Method in brief: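 Twofold compound dilutions (e.g. 50 to 0.097 μM final) in Iso-Sensitest broth with ~5×10^(5) CFU/ml, 35±2 °C. OD600 read every 20 min over 16 h; IC90 from growth inhibition during logarithmic phase.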

Row | SMILES | IC90 [µM]
1 | N#CCn1cc(-c2cnc3c(Nc4ccc(C(=O)N5CCN(C(=O)N6CC[C@H](N)C6)CC5)c(Cl)c4)nccn23)c(C(F)(F)F)n1 [Example 180, 2-[4-[8-[4-[4-[(3S)-3-aminopyrrolidine-1-carbonyl]piperazine-1-carbonyl]-3-chloroanilino]imidazo[1,2-a]pyrazin-3-yl]-3-(trifluoromethyl)pyrazol-1-yl]acetonitrile formate] | 0.182
2 | Cn1nccc1Cn1cc(-c2cnc3c(Nc4ccc(C(=O)N5CCNCC5)c(Cl)c4)nccn23)c(C(F)(F)F)n1 [Example 181, [2-chloro-4-[[3-[1-[(2-methylpyrazol-3-yl)methyl]-3-(trifluoromethyl)pyrazol-4-yl]imidazo[1,2-a]pyrazin-8-yl]amino]phenyl]-piperazin-1-ylmethanone formate] | 0.293
3 | O=C(c1ccc(Nc2nccn3c(-c4cn(Cc5cncnc5)nc4C(F)(F)F)cnc23)cc1Cl)N1CCNCC1 [Example 182, [2-chloro-4-[[3-[1-(pyrimidin-5-ylmethyl)-3-(trifluoromethyl)pyrazol-4-yl]imidazo[1,2-a]pyrazin-8-yl]amino]phenyl]-piperazin-1-ylmethanone formate] | 0.368
4 | Cn1ccc(Cn2cc(-c3cnc4c(Nc5ccc(C(=O)N6CCNCC6)c(Cl)c5)nccn34)c(C(F)(F)F)n2)n1 [Example 183, [2-chloro-4-[[3-[1-[(1-methylpyrazol-3-yl)methyl]-3-(trifluoromethyl)pyrazol-4-yl]imidazo[1,2-a]pyrazin-8-yl]amino]phenyl]-piperazin-1-ylmethanone formate] | 0.372
5 | Cc1cc(Cn2cc(-c3cnc4c(Nc5ccc(C(=O)N6CCNCC6)c(Cl)c5)nccn34)c(C(F)(F)F)n2)nn1C [Example 185, [2-chloro-4-[[3-[1-[(1,5-dimethylpyrazol-3-yl)methyl]-3-(trifluoromethyl)pyrazol-4-yl]imidazo[1,2-a]pyrazin-8-yl]amino]phenyl]-piperazin-1-ylmethanone formate] | 0.65
6 | N#CCn1cc(-c2cnc3c(Nc4ccc(C(=O)N5CCN(C(=O)C6CC(N)C6)CC5)c(Cl)c4)nccn23)c(C(F)(F)F)n1 (stereo not drawn) [Example 189, 2-[4-[8-[4-[4-(3-aminocyclobutanecarbonyl)piperazine-1-carbonyl]-3-chloroanilino]imidazo[1,2-a]pyrazin-3-yl]-3-(trifluoromethyl)pyrazol-1-yl]acetonitrile formate] | 0.204
7 | N#CCn1cc(-c2cnc3c(Nc4ccc(C(=O)N5CCN(C(=O)[C@H]6CC[C@@H](N)C6)CC5)c(Cl)c4)nccn23)c(C(F)(F)F)n1 [Example 192, 2-[4-[8-[4-[4-[(1S,3R)-3-aminocyclopentanecarbonyl]piperazine-1-carbonyl]-3-chloroanilino]imidazo[1,2-a]pyrazin-3-yl]-3-(trifluoromethyl)pyrazol-1-yl]acetonitrile formate] | 0.208
8 | CCc1cc(Nc2nccn3c(-c4c[nH]nc4C(F)(F)F)cnc23)ccc1C(=O)NCCCNC(=O)NCCN [Example 193, N-[3-(2-aminoethylcarbamoylamino)propyl]-2-ethyl-4-[[3-[3-(trifluoromethyl)-1H-pyrazol-4-yl]imidazo[1,2-a]pyrazin-8-yl]amino]benzamide formate] | 0.244

Same assay, conditions: Acinetobacter baumannii, ATCC17961, 16 h, strain ATCC 17961, OD600 growth over 16 h, read-out: A. baumannii ATCC 17961 IC90

Row | IC90 [µM] | SMILES
9 | 0.409 | CCc1cc(Nc2nccn3c(-c4c[nH]nc4C(F)(F)F)cnc23)ccc1C(=O)NCCOCC(C)(C)N [Example 176, N-[2-(2-amino-2-methylpropoxy)ethyl]-2-ethyl-4-[[3-[3-(trifluoromethyl)-1H-pyrazol-4-yl]imidazo[1,2-a]pyrazin-8-yl]amino]benzamide hydrochloride]
10 | 0.11 | O=C(c1ccc(Nc2nccn3c(-c4cn(Cc5cc[nH]n5)nc4C(F)(F)F)cnc23)cc1Cl)N1CCNCC1 [Example 177, [2-chloro-4-[[3-[1-(1H-pyrazol-3-ylmethyl)-3-(trifluoromethyl)pyrazol-4-yl]imidazo[1,2-a]pyrazin-8-yl]amino]phenyl]-piperazin-1-ylmethanone]
11 | 0.4 | C#CCNCCCNC(=O)c1ccc(Nc2nccn3c(-c4c[nH]nc4C(F)(F)F)cnc23)cc1CC [Example 184, 2-ethyl-N-[3-(prop-2-ynylamino)propyl]-4-[[3-[3-(trifluoromethyl)-1H-pyrazol-4-yl]imidazo[1,2-a]pyrazin-8-yl]amino]benzamide]
12 | 0.206 | N#CCn1cc(-c2cnc3c(Nc4ccc(C(=O)N5CCN(C(=O)[C@H]6CCCN6)CC5)c(Cl)c4)nccn23)c(C(F)(F)F)n1 [Example 186, 2-[4-[8-[3-chloro-4-[4-[(2R)-pyrrolidine-2-carbonyl]piperazine-1-carbonyl]anilino]imidazo[1,2-a]pyrazin-3-yl]-3-(trifluoromethyl)pyrazol-1-yl]acetonitrile]
13 | 0.159 | C[C@H](N)C(=O)N1CCN(C(=O)c2ccc(Nc3nccn4c(-c5cn(CC#N)nc5C(F)(F)F)cnc34)cc2Cl)CC1 [Example 187, 2-[4-[8-[4-[4-[(2S)-2-aminopropanoyl]piperazine-1-carbonyl]-3-chloroanilino]imidazo[1,2-a]pyrazin-3-yl]-3-(trifluoromethyl)pyrazol-1-yl]acetonitrile]
14 | 0.197 | C[C@@H](N)C(=O)N1CCN(C(=O)c2ccc(Nc3nccn4c(-c5cn(CC#N)nc5C(F)(F)F)cnc34)cc2Cl)CC1 [Example 188, 2-[4-[8-[4-[4-[(2R)-2-aminopropanoyl]piperazine-1-carbonyl]-3-chloroanilino]imidazo[1,2-a]pyrazin-3-yl]-3-(trifluoromethyl)pyrazol-1-yl]acetonitrile]
15 | 0.245 | N#CCn1cc(-c2cnc3c(Nc4ccc(C(=O)N5CCN(C(=O)[C@H]6CCNC6)CC5)c(Cl)c4)nccn23)c(C(F)(F)F)n1 [Example 190, 2-[4-[8-[3-chloro-4-[4-[(3S)-pyrrolidine-3-carbonyl]piperazine-1-carbonyl]anilino]imidazo[1,2-a]pyrazin-3-yl]-3-(trifluoromethyl)pyrazol-1-yl]acetonitrile]
16 | 0.276 | N#CCn1cc(-c2cnc3c(Nc4ccc(C(=O)N5CCN(C(=O)[C@@H]6CCNC6)CC5)c(Cl)c4)nccn23)c(C(F)(F)F)n1 [Example 191, 2-[4-[8-[3-chloro-4-[4-[(3R)-pyrrolidine-3-carbonyl]piperazine-1-carbonyl]anilino]imidazo[1,2-a]pyrazin-3-yl]-3-(trifluoromethyl)pyrazol-1-yl]acetonitrile]

Same assay, conditions: strain ATCC 17961, OD600 growth over 16 h, read-out: A. baumannii ATCC 17961 IC90

Row | SMILES | IC90 [µM]
17 | N#CCn1cc(-c2cnc3c(Nc4ccc(C(=O)N5CCN(C(=O)N6CCC(N)CC6)CC5)c(Cl)c4)nccn23)c(C(F)(F)F)n1 [Example 178, 2-[4-[8-4-[4-(4-aminopiperidine-1-carbonyl)piperazine-1-carbonyl]-3-chloroanilino]imidazo[1,2-a]pyrazin-3-yl]-3-(trifluoromethyl) pyrazol-1-yl]acetonitrile formate] | 0.161
18 | N#CCn1cc(-c2cnc3c(Nc4ccc(C(=O)N5CCN(C(=O)N6CC[C@@H](N)C6)CC5)c(Cl)c4)nccn23)c(C(F)(F)F)n1 [Example 179, 2-[4-[8-4-[4-[(3R)-3-aminopyrrolidine-1-carbonyl]piperazine-1-carbonyl]-3-chloroanilino]imidazo[1,2-a]pyrazin-3-yl]-3-(trifluoromethyl) pyrazol-1-yl]acetonitrile formate] | 0.181
